Assay results as given in PubChem BioAssay (NCI).
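Five compound concentrations were applied to cells in 96-well plates for 48 hours; endpoints were derived by simple linear interpolation of the resulting dose-response curve. The concentration for full growth arrest is given as TGI.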

Tested on: RXF-631 renal
Assay: growth of human tumour cells (NCI), 48 h

SMILES: COc1ccc2c[n+](C)c3c4cc(OC)c(OC)cc4ccc3c2c1
- TGI: 46.9 µM
